Results reported in patent US20100330148A1, “MEHODS AND COMPOSITIONS FOR INHIBITING IMPDH-1 ISOFORM 1” (The Johns Hopkins University, priority 2006, published 2010).
pIC50: −log10 of the molar value. “And” between values parts separate entries of the source, which are not always exact repeats. Identical values can stand only once.

What was measured:
[1] = human renal transplant patients, chronic oral treatment; cited from earlier work
[2] = system: VEGF and bFGF stimulated angiogenesis (new blood vessel formation); experiment: Matrigel plug angiogenesis assay in mice; format: in vivo, mouse; conditions: 60 mg/kg/day s.c., 10 days after plug implantation, vs vehicle, p<0.002
Description: In vivo angiogenesis. Female C57BL/6NCr 5-week old, 25-30 g mice were purchased from NCI and treated in accordance with Johns Hopkins ACUC procedures. In all animal experiments the MPA prodrug mycophenolate mofetil i.v. formulation (Roche) was used. Mice were pretreated with drug for three days and then implanted with 0.5 mL of Matrigel (BD Biosciences) containing 100 ng/mL VEGF and 150 ng/mL bFGF. Drug treatment was continued daily for 10 days, mice were sacrificed, and plugs were harvested, fixed in neutral buffered formalin, and processed for histology using MAS-trichrome staining. The entire Matrigel plug was photographed at 100× and erythrocyte-filled blood vessels were counted per field.
Matrigel plugs' containing VEGF and bFGF were subcutaneously implanted into mice. The control group was treated with saline vehicle and the MPA group was treated with 60 or 120 mg/kg/day of drug. […] To quantify these differences we counted erythrocyte-filled blood vessels per 100× field (FIG. 3E) (Fahmy, R. G., Dass, C. R., Sun, L. Q., Chesterman, C. N. & Khachigian, L. M. (2003) Nat. Med. 9, 1026-1032), and observed a 69% decrease in new blood vessel formation in mice treated with MPA in comparison with vehicle control (p<0.002). Thus, MPA is capable of inhibiting angiogenesis at a therapeutically achievable dose in vivo.

[3] = system: Jurkat T cells; experiment: Jurkat T-cell proliferation, [3H]-thymidine incorporation; format: cell-based
Description: (§1) Library construction. 32,000 FDA drug approvals obtained by Freedom of Information Act requests were condensed to 3,400 unique drug formulations. Drugs were purchased from Sigma, Spectrum Chemicals, MP Biomedicals, The Johns Hopkins Hospital pharmacy, Biomol, and Tocris. 10 mM stock solutions were made using DMSO, water, or ethanol as solvents. Drugs were arrayed in 96-well plates and screened at a final concentration of 10 μM. Cells were incubated with drug for 36 h and proliferation was measured by pulsing with 1 μCi [^3H]-thymidine for 8 h followed by absorption onto glass filters and scintillation counting.
(§2) Statistical analysis. IC50 measurements were carried out in triplicate, and analyzed using four parameter logarithmic analysis. Values are presented +/− the standard error of the mean. P-values were calculated using the Student's T-test. IC50 measurements are carried out using standard assays, and include assays described in Gilbert H J, Lowe C R, Drabble W T. Biochem J. 1979, 183:481-94; and Xiang, B., Taylor, J. C., and Markham, G. D. J. Biol. Chem., 271, 1435 (1996); the contents of which are incorporated herein by reference.
MPA is an immunosuppressive drug widely used to prevent rejection of transplanted organs (Lipsky, J. J: (1996) Lancet 348, 1357-1359.). The mechanism of action in the immune system is well established—MPA inhibits de novo biosynthesis of purines in T and B lymphocytes (Allison, A. C. & Eugui, E. M. (2000) Immunopharmacology 47, 85-118.). […] Thus, a comparison of HUVEC to Jurkat T cells for sensitivity to MPA in the presence and absence of guanine was carried out. […] Addition of guanine at or above 20 μM rendered Jurkat T cells resistant to MPA. Similar to Jurkat T cells, inhibition of HUVEC proliferation is also reversed by guanine in a dose-dependent manner (FIG. 1B). Unlike Jurkat T cells, however, HUVECs are less sensitive to guanine, the cause of which remains unknown. Similar reversal of MPA inhibition is also seen in HUVEC and Jurkat T-cells with the addition of exogenous guanosine and deoxyguanosine (data not shown).

[4] = system: RENCA cells; experiment: Murine renal cell carcinoma (RENCA) tumor model; format: in vivo, mouse; conditions: mice
Description: Renal cell tumor model. Female BALB/C5-6 week old, 25-30 g mice were purchased from NCI. Logarithmically growing RENCA cells (5×10^5) in 50 μL 50% PBS, 50% Matrigel were injected into the renal subcapsule through an incision in the left flank (Drevs, J., Hofmann, I., Hugenschmidt, H., Wittig, C., Madjar, H., Muller, M., Wood, J., Martiny-Baron, G., Unger, C. & Marme, D. (2000) Cancer Res. 60, 4819-4824.). The mice were sacrificed 3.5 weeks after surgery and the primary tumors were dissected and fixed for immunohistochemistry. For CD31 analysis eight fields with the highest level of angiogenesis were selected per tumor for quantification using ImagePro Plus software (Media Cybernetics), and represented as mean percentage area occupied by CD31 positive blood vessels.
Angiogenesis has been implicated in tumor growth among a number of other diseases. Although MPA inhibits fast-growing tumor cell lines in culture and in mouse xenograph experiments (Tressler, R. J., Garvin, L. J. & Slate, D. L. (1994) Int. J. Cancer 57, 568-573, Carter, S. B., Franklin, T. J., Jones, D. F., Leonard, B. J., Mills, S. D., Turner, R. W. & Turner, W. B. (1969) Nature 223, 848-850), it is unclear whether MPA also affects tumor-associated angiogenesis. We determined the efficacy of MPA in inhibiting tumor-associated angiogenesis in a murine renal cell carcinoma (RENCA) model (Salup, R. R. & Wiltrout, R. H. (1986) Cancer Res. 46, 3358-3363). MPA inhibited the growth of the primary tumor in a dose-dependent fashion, causing a 34% and 27% decrease in volume and weight, respectively, at 60 mg/kg/day and a 64% decrease in both volume and weight at 120 mg/kg/day (p<0.001) (FIG. 4A). The decrease in tumor growth caused by MPA at 120 mg/kg/day was accompanied by a 48% decrease in the area of CD31 positive staining blood vessels per 200× field (p<0.001).

[5] = system: human umbilical vein endothelial cells (HUVEC); experiment: HUVEC proliferation, [3H]-thymidine incorporation; format: cell-based
Description: as §1, §2
A library of 1,850 FDA-approved drugs and 600 drugs that entered the clinic via approval in a foreign country or phase II clinical trials was created. […]

[6] = system: HUVEC; experiment: Cell cycle analysis of HUVEC; format: cell-based, human
Excerpt: It has been shown that MPA causes cell cycle arrest in activated T and B lymphocytes at G1 (Laliberte, J., Yee, A., Xiong, Y. & Mitchell, B. S. (1998) Blood 91, 2896-2904.). Therefore, the effect of MPA on endothelial cell cycle progression was examined.

[7] = small cohorts of cancer patients (<35), diethanolamine salt; cited from earlier work

| pIC50 ([3]; Homo sapiens, Jurkat, [3H]-thymidine incorporation, +/- standard error of the mean) | SMILES | half life [1] [h] | peak plasma level [1] [µM] | decrease in new blood vessel formation (erythrocyte-filled blood vessels per 100× field) [2] [%] | MPA inhibition of Jurkat T-cell proliferation with exogenous guanine ([3]; guanine 10 μM) | MPA inhibition of Jurkat T-cell proliferation with exogenous guanine ([3]; guanine 20 μM and 50 μM) | decrease in primary tumor volume ([4]; 60 mg/kg/day) [%] | decrease in primary tumor weight ([4]; 60 mg/kg/day) [%] | decrease in primary tumor volume ([4]; 120 mg/kg/day, p<0.001) [%] | decrease in primary tumor weight ([4]; 120 mg/kg/day, p<0.001) [%] | decrease in area of CD31 positive staining blood vessels per 200× field ([4]; 120 mg/kg/day, p<0.001, 120 mg/kg/day) | pIC50 ([5]; Homo sapiens, HUVEC, [3H]-thymidine incorporation, +/- standard error of the mean) | MPA inhibition of HUVEC proliferation with exogenous guanine ([5]; guanine 10 μM and 20 μM) | cell cycle effect ([6]; 1 μM MPA) | population of cells in S phase ([6]; 1 μM MPA (control 12%)) [%] | population of cells in G2/M phase ([6]; 1 μM MPA (control 17.8%)) [%] | population of cells in G1 phase ([6]; 1 μM MPA (control 71%)) [%] | cell cycle effect of MPA after addition of guanosine ([6]; 1 μM MPA + 50 μM guanosine) | toxicity in patients [7] |
| --- | --- | --- | --- | --- | --- | --- | --- | --- | --- | --- | --- | --- | --- | --- | --- | --- | --- | --- | --- |
| 6.89 | COc1c(C)c2c(c(O)c1C/C=C(\C)CCC(=O)O)C(=O)OC2 [MPA, mycophenolic acid] | 18 | 75 | 69 | unaffected | completely reversed | 34 | 27 | 64 | 64 | 49% and 48% | 7.00 | partially reversed | G1/S cell cycle arrest | 6.5 | 12.4 | 81 | completely reversed |  |
|  | COc1c(C)c2c(c(O)c1CC=C(C)CCC(=O)O)C(=O)OC2.OCCNCCO [diethanolamine salt of MPA] |  |  |  |  |  |  |  |  |  |  |  |  |  |  |  |  |  | considerable dose-limiting gastrointestinal toxicity |
